# Patent US12565510B2, “Phospholipid” (NIPPON FINE CHEMICAL CO., LTD., priority 2021, dated 2026)
# Assays:
# [1] = siRNA encapsulation efficiency of lipid particles (RiboGreen reagent); assay type: physicochemical; conditions: siRNA-containing lipid particles made with the named phospholipid A; siRNA/lipid molar ratio 1/7000; with or without 2% Triton-X 100
# Experimental: (§1) siRNA was added to 1 mM citrate buffer (pH 4.0), thereby preparing an acidic aqueous solution of siRNA (25° C., siRNA concentration: 301.2 nM). Separately, lipids were added to ethanol, thereby preparing a phospholipid alcohol solution (25° C., lipid concentration: 2.5 mM). The molar ratios of lipids were (1) DHSM-DEDA:DHSM:cholesterol (Chol)=45:10:45, (2) DHSM-PPZ:DOPC:cholesterol (Chol)=45:10:60, and (3) DOP-DEDA:DPPC:cholesterol (Chol)=45:10:45. A 4.15-fold volume of the acidic aqueous solution of siRNA was added to the phospholipid alcohol solution (siRNA/lipid molar ratio=1/7000), and a microchannel (KeyChem-Basic, YMC Co., Ltd.) was used to obtain lipid particles. Finally, ethanol was removed by dialysis.
# Further, the encapsulation efficiency of siRNA was measured in the following manner. The measurement was performed using an RNA assay reagent (RiboGreen reagent, Thermo Fisher Scientific), specifically as described below. […] The plate was shaken for 5 minutes, and the fluorescence intensity in each well was measured. The encapsulation efficiency of siRNA in the lipid particles was calculated using the following equation: the encapsulation efficiency (%)=(the fluorescence intensity of total siRNA−the fluorescence intensity of free siRNA)/(the fluorescence intensity of total siRNA), with the measured fluorescence intensity.
# [2] = Measurement of particle size and polydispersity index of lipid particles (Zetasizer Nano ZS); assay type: physicochemical; conditions: siRNA-containing lipid particles made with the named phospholipid A, phospholipid B and cholesterol; for PDI / Particle size (nm): diluted 50-fold with RNase-free water
# Experimental: as §1
# The lipid particles were diluted 50-fold with RNase-free water, and then the particle size and polydispersity index (PDI) were measured with a Zetasizer Nano ZS (Malvern). The lipid particles were also diluted 50-fold with a buffer (pH=4.0, 5.0, 6.0, or 7.0), and the ζ-potential was then measured.
siRNA encapsulation efficiency (%) [1],Particle size distribution [2],PDI [2],Particle size (nm) [2],Compound
80 ± 7%,Double peak,0.16 ± 0.01,111 ± 4 nm,"(2S,3R)-3-hydroxy-2-stearamidooctadecyl (2-(piperazino)ethyl) phosphate [DHSM-PPZ]"
98 ± 7%,Single peak,0.11 ± 0.06,100 ± 3 nm,"Dioleoylphosphate-Diethylenediamine Conjugate [DOP-DEDA, reference compound]"
,Double peak,0.09 ± 0.03,132 ± 37 nm,"CCCCCCCCCCCCCCCCCC(=O)N[C@@H](COP(=O)(O)OCCNCCN)[C@H](O)CCCCCCCCCCCCCCC [DHSM-DEDA, (2S,3R)-3-hydroxy-2-stearamidooctadecyl (2-(2′-aminoethylenamine)ethyl) phosphate]"
